Experimental findings from ChEMBL document CHEMBL4627299, “Computational discovery and biological evaluation of novel inhibitors targeting histone-lysine N-methyltransferase SET7” (Bioorg Med Chem, 2020) are described below.

One may read the inhibition as the change of the read-out against control, counted positive when it falls. Read a high inhibition as strong suppression. As a reminder, the IC50 is the point on the concentration scale where inhibition reaches its midpoint.

Experiment [1] deals with T1, Histone-lysine N-methyltransferase SETD7 (Homo sapiens) (UniProt Q8WTS6).
T1 sequence (whole entry): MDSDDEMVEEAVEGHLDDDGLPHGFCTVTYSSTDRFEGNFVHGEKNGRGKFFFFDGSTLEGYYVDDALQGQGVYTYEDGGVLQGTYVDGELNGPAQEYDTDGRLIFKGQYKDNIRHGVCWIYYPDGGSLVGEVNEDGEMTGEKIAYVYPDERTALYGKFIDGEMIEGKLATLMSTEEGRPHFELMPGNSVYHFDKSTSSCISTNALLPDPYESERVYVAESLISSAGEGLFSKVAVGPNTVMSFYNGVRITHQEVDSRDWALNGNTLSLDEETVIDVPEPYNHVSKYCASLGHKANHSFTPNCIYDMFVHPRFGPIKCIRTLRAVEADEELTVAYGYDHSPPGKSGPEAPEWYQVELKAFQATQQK
Put plainly: Inhibition of human SET7 overexpressed in Escherichia coli BL21 (DE3) cells at 12.5 uM preincubated for 15 mins followed by addition of SAM as substrate and biotinylated Histone H3 (1-50) peptide measured after 30 mins by AlphaLISA assay relative to control. (In general: In Alpha technology, singlet oxygen from a donor bead excites a nearby acceptor bead.)

Experiment [2] deals with T1, Histone-lysine N-methyltransferase SETD7 (Homo sapiens). The experiment in a line: Inhibition of human SET7 overexpressed in Escherichia coli BL21 (DE3) cells at 50 uM preincubated for 15 mins followed by addition of SAM as substrate and biotinylated Histone H3 (1-50) peptide measured after 30 mins by AlphaLISA assay relative to control.
The target is the same in experiment [3]. Put plainly: Inhibition of human SET7 overexpressed in Escherichia coli BL21 (DE3) cells at 25 uM preincubated for 15 mins followed by addition of SAM as substrate and biotinylated Histone H3 (1-50) peptide measured after 30 mins by AlphaLISA assay relative to control.
In experiment [4] the target is T2, Histone-lysine N-methyltransferase SETD7 (Homo sapiens, UniProt Q8WTS6).
T2 sequence (Q8WTS6 whole entry): T1 sequence (whole entry)
The experiment in a line: Inhibition of human SET7 overexpressed in Escherichia coli BL21 (DE3) cells preincubated for 15 mins followed by addition of SAM as substrate and biotinylated Histone H3 (1-50) peptide measured after 30 mins by AlphaLISA assay relative to control.

`CCN1CCCC1CNC(=O)c1cc(S(=O)(=O)CC)c(N)cc1OC` (stereo not drawn): the inhibition in experiment [1] is 14%; in experiment [2], 3%; in experiment [3] it was 14%.

For `O=c1c(O)c(-c2ccc(O)cc2O)oc2cc(O)cc(O)c12` [MORIN], the inhibition in experiment [1] amounted to 40%; in experiment [2], 87%; in experiment [3] it was 62%. Also, the IC50 in experiment [4] is 6.02 µM.

Take `O=c1c(O)c(-c2ccc(O)cc2)oc2cc(O)cc(O)c12` [KAEMPFEROL]: in experiment [4], the IC50 was more than 200 µM.

As to `O=c1c(-c2ccc(O)cc2)coc2cc(O)ccc12`, the figures for the inhibition in experiment [1], in experiment [2] and in experiment [3] were 5%, 14% and 6%, respectively.

On to `COc1cc(O)c(CC=C(C)C)c(O)c1C(=O)/C=C/c1ccc(O)cc1`, for which the inhibition in experiment [1] was 9%; in experiment [2], 18%; in experiment [3] it was 11%.

As for `O=C(Nc1c(Cl)cncc1Cl)c1ccc(OC(F)F)c(OCC2CC2)c1`, the figures for the inhibition in experiment [1], in experiment [2] and in experiment [3] were 27%, 23% and 19%, respectively.

For the molecule `Cc1cc([N+](=O)[O-])ccc1NS(=O)(=O)c1cc(Cl)ccc1Cl`, the inhibition in experiment [1] was determined as 17%; in experiment [2], 26%; in experiment [3], 26%.

Turning to `COc1ccc(-c2oc3cc(O)cc(O)c3c(=O)c2O)cc1` [KAEMPFERIDE], in experiment [4], the IC50 is more than 200 µM.

As to `N[C@@H](CC(=O)N1CCn2c(nnc2C(F)(F)F)C1)Cc1cc(F)c(F)cc1F`, the inhibition in experiment [3] stood at 6%.

`CC(C)C[C@H](NC(=O)[C@H](Cc1ccccc1)NC(=O)c1cnccn1)B(O)O`: the inhibition in experiment [1] was 18%; in experiment [2] it was 24%; in experiment [3], 19%.

In the case of `CC(C)=CC[C@@H](O)C1=CC(=O)c2c(O)ccc(O)c2C1=O` [SHIKONIN], the inhibition in experiment [1] stood at 50%; in experiment [2], 90%; in experiment [3] it was 72%. This molecule came in with a half-maximal inhibitory concentration (IC50) in experiment [4] of 21.6 µM.

On to `Cc1oncc1C(=O)Nc1ccc(C(F)(F)F)cc1`, for which the inhibition in experiment [3] worked out at 4%.

On to `COc1c(O)cc(O)c2c(=O)cc(-c3ccccc3)oc12`, for which the inhibition in experiment [1] was 19%; in experiment [2] it was 4%; in experiment [3] it was 10%.

In turn, `O=c1c(O)c(-c2ccccc2)oc2cc(O)cc(O)c12` [GALANGIN] displayed a concentration for half-maximal inhibition (IC50) in experiment [4] of more than 200 µM.

As to `COC(=O)[C@H](Cc1ccccc1)NC(=O)[C@@H](N)CC(=O)O`, the inhibition in experiment [1] amounted to 17%; in experiment [2] it was 10%; in experiment [3], 32%.

For the molecule `CCn1cc(C(=O)O)c(=O)c2cc(F)c(N3CCNC(C)C3)c(F)c21` (stereo not drawn), the inhibition in experiment [1] is 19%; in experiment [2], 14%; in experiment [3] it was 23%.

With `Cc1cnc(NC(=O)C2=C(O)c3ccccc3S(=O)(=O)N2C)s1`, the inhibition in experiment [1] amounted to 18%; in experiment [2], 23%; in experiment [3], 29%.

As to `O=C1C[C@@H](c2ccc(O)c(O)c2)Oc2cc(O)cc(O)c21` [ERIODICTYOL], the IC50 in experiment [4] was more than 200 µM.

Molecule `O=c1cc(-c2ccc(O)c(O)c2)oc2cc(O)cc(O)c12` [LUTEOLIN] registered a half-inhibitory concentration (IC50) in experiment [4] of 6.08 µM.

Take `CC(C)=CCC1=C(O)C(=O)c2ccccc2C1=O`: the inhibition in experiment [1] worked out at 3%; in experiment [3] it was 4%.

As for `C=CC(C)(C)c1cc(/C=C/C(=O)c2ccc(O)cc2)c(OC)cc1O`, the inhibition in experiment [1] stood at 17%; in experiment [2] it was 39%; in experiment [3], 28%.

Take `O=C(N/N=C/c1ccc([N+](=O)[O-])o1)c1ccc(O)cc1`: the values for the inhibition in experiment [1], in experiment [2] and in experiment [3] were 8%, 7% and 18%, respectively.
